# Tests used:
# [1] = tested on: Amaranthus tamariscinus (AMATA, common waterhemp), sensitive biotype (w.1); test: Greenhouse herbicidal activity test, sensitive common waterhemp (w.1); format: in vivo; details: for Weed control (%) w.1: sensitive biotype, scale 0 (no damage) to 100 (complete destruction)
# [2] = tested on: Amaranthus tamariscinus (AMATA, common waterhemp), PPO resistant biotype 1 (w.2); test: Greenhouse herbicidal activity test, PPO resistant common waterhemp biotype 1 (w.2); format: in vivo; details: for activity on / control of resistant weeds (w.2), in words: azafenidin: in comparison to sensitive biotypes; for Weed control (%) w.2: PPO resistant biotype 1, scale 0 to 100
Structure (SMILES),"activity on sensitive weeds (w.1), in words [1]",Weed control (%) w.1 ([1]; use rate 2 g/ha) [%],Weed control (%) w.1 ([1]; use rate 4 g/ha) [%],"activity on / control of resistant weeds (w.2), in words [2]",Weed control (%) w.2 ([2]; use rate 2 g/ha) [%],Weed control (%) w.2 ([2]; use rate 4 g/ha) [%]
"CCc1ccc(COc2ccc(-n3c(=O)cc(C(F)(F)F)n(C)c3=O)cc2)c(OC(C)C(=O)OC)c1 (centres unmarked) [(I).1, benzfendizone]",very good activity,94,100,very good activity,89,92
"C#CCOc1cc(-n2nc3n(c2=O)CCCC3)c(Cl)cc1Cl [azafenidin, reference compound]",–,95,98,much weaker control,67,73

# From US20210352900A1, “Method for Controlling PPO Resistant Weeds” (BASF SE, priority 2016, published 2021)
